Assays:
[1] = system: human norovirus GII. 4 strain; experiment: Human norovirus proliferation inhibition test by use of 6a-fucose (real-time RT-PCR of genomic RNA), GII.4 strain; format: cell-based
Experimental: (§1) To a medium containing the 2D organoid, 6a-fucose was added so as to adjust a final concentration of 0 μM, 1.6 μM, 8 μM, 40 μM, and 200 μM, and culturing for differentiation induction was performed for 4 days. The culturing was performed by means of a 96-well plate in which 3 wells were dedicated for each 6a-fucose addition system, and one test plate was used for one human norovirus tested. The human norovirus tested included the GII.4 strain and GII. 6 strain. The culturing was performed in a CO2 gas incubator controlled at 37° C.
(§2) On day 4 of culturing, the medium was removed, and the plate was washed with a new medium. Subsequently, each human norovirus was added at 10^5 RNA copies to the plate for infection, and static culturing was performed for 3 hours. After completion of the infection treatment, human norovirus remaining in the medium was removed together with the medium, and the plate was washed thrice with a new medium.
(§3) After washing, 6a-fucose was added again to the new medium so as to adjust a final concentration to 0 μM, 1.6 μM, 8 μM, 40 μM, and 200 μM, and culturing was performed for 6 days.
(§4) A portion (10 μL) of the culture medium was collected from each well at three timings: (a) immediately after the addition to the new medium, (b) on day 3, and (c) on day 6. The sample was centrifuged at 10,000 g for 10 minutes, and the cell precipitate was removed. The human norovirus genomic RNA contained in the supernatant (1 μL) was quantitated through real-time RT-PCR.
(§5) In FIG. 13, the effects of use of 6a-fucose are shown with respect to (a) human norovirus GII. 4 strain and (b) human norovirus GII. 6 strain. The vertical axis in FIG. 13 represents the copy number of human norovirus genomic RNA (RNA titer), and the numeral under each bar graph represents the time of culturing from the start of the test.

[2] = system: human norovirus GII. 6 strain; experiment: Human norovirus proliferation inhibition test by use of 6a-fucose (real-time RT-PCR of genomic RNA), GII.6 strain; format: cell-based
Experimental: as §1, §2, §3, §4, §5

2D organoid = experiment: Cytotoxicity of 6a-fucose to cultured 2D organoid (mono-layer sheet still alive); format: cell-based, human; conditions: 6a-fucose 1.6 to 200 μM, any of the tested concentrations
Experimental: as §1

[3] = system: human norovirus GII. 4 strain or GII. 6 strain; experiment: Effect of treatment with 2fp-fucose or 6a-fucose after differentiation, on infection and reinfection (RNA titer by real-time RT-PCR); format: cell-based; conditions: fucose analog 200 μM added on day 5, infection on day (5+2), 3 days culturing
Experimental: (a) The 2D organoid was disseminated to a 96-well plate. After completion of differentiation induction, two fucose analogs (i.e., 2fp-fucose and 6a-fucose) were each added on day 5 to a concentration of 200 μM, to thereby provide addition groups. The results are shown in FIG. 14(a) and FIG. 14(b), respectively. A non-addition group (untreated group) was also provided. Subsequently, the medium was removed from the wells on day (5+2), and the plate was washed. Then, infection with the GII. 4 strain or the GII. 6 strain was performed.
After the infection treatment, the human norovirus remaining in the medium was removed together with the medium, and the plate was washed thrice with a new medium. After washing, the aforementioned active ingredients were each added to the new medium to a concentration of 200 μM (addition groups), and no addition was performed with respect to the untreated (i.e., non-addition) group. Culturing was performed for 3 days. A portion (10 μL) of the medium was sampled from each well, and the samples were centrifuged at 10,000 g for 10 minutes, to thereby remove cell precipitates. The amount of human norovirus genomic RNA in the supernatant (1 μL) was determined through real-time RT-PCR.
In the test system, the effect of the anti-norovirus agent of the present invention provided after human norovirus infection was estimated on the basis of the following study. Specifically, among the fucose analog-treated 2D organoid cells, the living cells on growth day 3 (i.e., most of them were not infected with human norovirus, by virtue of the effect of the fucose analog) were subjected to a secondary infection operation (i.e., reinfection). The effect of the fucose analog on the reinfection was investigated.
In a specific procedure, the addition groups were prepared through the same procedure as employed in (a) above. The primarily infected cells were cultured in the presence of the fucose analog (200 μM) for 3 days, and the medium was removed from each culture system. After completion of washing, the cells were infected again with human norovirus, and then the virus was removed together with the medium. After completion of the next washing, a medium containing the fucose analog (200 μM) (represented by Reinf+2f-fuc or Reinf+6a-fuc), or a fucose analog-free medium (represented by Reinf−2f-fuc or Reinf−6a-fuc) was added thereto, and culturing was performed for further 3 days. Similar to the above case, the amount of human norovirus released to the supernatant was determined as an RNA titer. In the graphs, the two bars on the right side correspond to (Reinf+2f-fuc and Reinf+6a-fuc) or (Reinf−2f-fuc and Reinf−6a-fuc).

[4] = system: human norovirus GII.4 (K2017 strain); experiment: Human norovirus proliferation inhibition in 2D organoid after agent pre-treatment, GII.4 strain; format: cell-based; conditions: GII.4, 3 days treatment before infection
Experimental: Feces of a human norovirus-infected patent contains a large amount of infectious human norovirus. Thus, the feces of a human norovirus-infected patient is suspended in distilled water or the like to a final concentration of about 10%, to thereby prepare a “10% feces suspension.” The 10% feces suspension is about 10-fold diluted with an ENRA medium. The diluted suspension is added to each of the aforementioned wells having the 2D organoid (5 μL/well) and subjected to incubation for about 3 hours, to thereby proliferate human norovirus. As a result of verification, it has been confirmed that human norovirus proliferates to about 100,000 times the initial count through the culture system employing the 2D organoid.
In the Example, there were tested strains of human norovirus obtained from feces of human norovirus infection patients through the aforementioned procedure and stocked before the test. Specifically, three strains belonging to the genetic group 2 (GII) which accounts for 80 to 90% of the infected patients were selected as test targets. The isolated strain lineages included in GII (FIG. 1) were GII. 6 belonging to “Lineage 1,” GII. 3 belonging to “Lineage 2,” and GII.4 belonging to “Lineage 3” (GII. 6: K2017 strain, GII.3: TCH2004 strain, and GII. 4: K2017 strain).
The effect of 2fp-fucose treatment on proliferation of human norovirus was investigated for each lineage of norovirus. Specifically, after the 2fp-fucose treatment for 3 days, the 2D organoid was infected with each of the aforementioned norovirus strains GII.6, GII. 3, and GII. 4, and the viral proliferation amount was determined on days 3 and 6 after infection (FIG. 4).
Next, there was investigated the effect of the period of time (the number of days) of the 2fp-fucose treatment performed in advance on the anti-human norovirus action of the fucose analog. Specifically, the strain GII. 4 was treated with 2fp-fucose (several concentrations) for 1 to 4 days. […] However, in the group of 3-day treatment, the proliferation inhibition effect was observed by the 200 μM treatment with a certain range of variation in effectiveness. In the group of 4-day treatment, the proliferation inhibition effect was initially observed by 8 μM treatment, and the effect increased in a concentration-dependent manner to a 2fp-fucose concentration of 200 μM. […] Thus, the highest proliferation inhibition effect was obtained in the 2D organoid system through a 200 μM treatment for 3 to 4 days. The test was repeatedly performed three times. Error bars denote SEMs.
The 2D organoid was treated with an agent for 3 days. The tested agents were (a) 2fp-fucose (200 μM), (b) Sofosbuvir (1 μM), (c) Lamivudine (1 μM), (d) Ribavirin (400 μM), and (e) Mizoribine (100 μM). Subsequently, the thus-treated 2D organoid was infected with human norovirus (the norovirus strain GII.4), and the proliferation inhibition effect was determined (FIG. 6). The test was repeatedly performed three times. Error bars denote SEMs.

## C#C[C@@H]1OC(OC(C)=O)[C@@H](OC(C)=O)[C@H](OC(C)=O)[C@@H]1OC(C)=O (stereo partly drawn) [6a-fucose, 1,2,3,4-tetra-O-acetyl-6,7-dideoxy-L-galacto-hept-6-ynopyranose]
[1]; 6a-fucose 8 μM
  rise in RNA titer relative to the titer at the start of culturing: about 10 times
[1]; 6a-fucose 40 μM, day 6
  rise in RNA titer: no substantial increase in RNA titer was observed
[1]; 6a-fucose 200 μM
  rise in RNA titer: completely inhibited
[1]; 4 days pre-treatment, 6 days culturing after infection
  6a-fucose concentration at which the proliferation inhibition effect emerged: 1.6 µM
[1]; each 6a-fucose treatment group (any concentration), culture day 6
  RNA titer relative to the titer at the start of culturing: ≤ 100 times
[2]; 6a-fucose 1.6 μM
  proliferation inhibition effect: not recognized
[2]; 6a-fucose 8 μM, culture days 3 and 6
  human norovirus genome proliferation: actively suppressed
[2]; 6a-fucose 40 μM
  human norovirus genome proliferation: completely inhibited
2D organoid
  cytotoxicity to cultured cells (2D organoid): no cytotoxicity attributed to addition of 6a-fucose was observed
[3]
  rise in RNA titer (proliferation of human norovirus) in the addition group: no rise in RNA titer
  rise in RNA titer of the untreated group with respect to the administration system: ≥ 150 fold

## NC(=O)c1ncn([C@@H]2O[C@H](CO)[C@@H](O)[C@H]2O)c1O [Mizoribine, reference compound]
[4]; agent 100 μM
  viral RNA titer from day 0 to day 7 (proliferation inhibition effect): no effect of inhibiting proliferation of human norovirus

## NC(=O)c1ncn([C@@H]2O[C@H](CO)[C@@H](O)[C@H]2O)n1 [Ribavirin, reference compound]
[4]; agent 400 μM
  viral RNA titer from day 0 to day 7 (proliferation inhibition effect): no effect of inhibiting proliferation of human norovirus

## CC(C)OC(=O)[C@H](C)N[P@](=O)(OC[C@H]1O[C@@H](n2ccc(=O)[nH]c2=O)[C@](C)(F)[C@@H]1O)Oc1ccccc1 [Sofosbuvir, reference compound]
[4]; agent 1 μM
  viral RNA titer from day 0 to day 7 (proliferation inhibition effect): no effect of inhibiting proliferation of human norovirus

— patent US20240390404A1, “ANTI-HUMAN NOROVIRUS AGENT” (KEIO UNIVERSITY, priority 2018, published 2024)
